{
  "source": "patent US6531454B1",
  "about": "“Glycosylated polyamines and methods of use therefor” (The Regents of the University of California, priority 1999, dated 2003)",
  "type_in_all_cases": "cell-based",
  "key": {"MDA-MB-435 cells": {"system": "MDA-MB-435 cells", "test": "In vitro tumor cell growth inhibition (cytotoxicity assay), breast cancer cell line", "settings": "MDA-MB-435 breast cancer cells", "protocol": "(§1) Cytotoxicity may be measured using a standard methodology for adherent cell lines such as the microculture tetrazolium assay (MTT). Details of this assay have been published (Alley, M C et al, Cancer Research 48:589-601, 1988). Exponentially growing cultures of tumor cells such as the HT-29 colon carcinoma or LX-1 lung tumor can be used to make microtiter plate cultures. Cells can be seeded at 5000-20,000 cells per well in 96-well plates (in 150 μl of media), and grown overnight at 37° C. Test compounds are added, in 10-fold dilutions varying from 10^−4 M to 10^−10 M.\n(§2) Cells are then incubated for 48-72 hours. To determine the number of viable cells in each well, the MTT dye is added (50 μl of 3 mg/ml solution of 3-(4,5-dimethylthiazol-2-yl)-2,5-diphenyltetrazolium bromide in saline). This mixture is incubated at 37° C. for 5 hours, and then 50 μl of 25% SDS, pH 2 is added to each well. After an overnight incubation, the absorbance of each well at 550 mn is read using an ELISA reader. The values for the mean+/−SD of data from quadruplicate wells are calculated, using standard formula as for the %T/C (%viable cells treated/control). Additional methods as described by Inhibition of the growth of tumor cells was determined as described by Patil, S. D., et al J. Med. Chem., 32, 1284 (1989) may be used as well.\n(§3) The concentration of test compound which gives a T/C of 50% growth inhibition is designated as the IC50.\n(§4) Typically, the cells are grown in RPMI 1640 medium supplemented with 10 nM calcium leucovorin instead of folic acid as the folate source, 10% dialyzed fetal calf serum, penicillin and streptomycin. Additional ingredients may be added depending on the particular needs of the cells being cultured. […]\n(§5) Cells are seeded into 96-well plates using a pipeting mechanism such as Perkin-Elmer Pro/pette. […] Inhibition of cell growth may be measured using the MTT dye reduction assay as described above."}, "[1]": {"system": "KM12 colon cancer cell lines", "test": "In vitro tumor cell growth inhibition (cytotoxicity assay), colon cancer cell line", "settings": "KM12 colon cancer cells", "protocol": "as §1, §2, §3, §4, §5"}, "[2]": {"system": "CAKI-1 renal cancer cell lines", "test": "In vitro tumor cell growth inhibition (cytotoxicity assay), renal cancer cell line", "settings": "CAKI-1 renal cancer cells", "protocol": "as §1, §2, §3, §4, §5"}, "[3]": {"system": "OVCAR-4 ovarian carcinoma cell lines", "test": "In vitro tumor cell growth inhibition (cytotoxicity assay), ovarian carcinoma cell line", "settings": "OVCAR-4 ovarian carcinoma cells", "protocol": "as §1, §2, §3, §4, §5"}, "[4]": {"settings": "Homo sapiens, read-out: LC50 (the source's name)"}},
  "data": [
    {"compound": "Cl.OCC1OC(NCCNCCNC2OC(CO)C(O)C(O)C2O)C(O)C(O)C1O", "note": "[Compound 1, 1,3-N,N-di-β-D-glucopyranosyl-diethylenetriamine]", "values": [
      {"measurement": "GI50", "setting": "MDA-MB-435 cells; Homo sapiens, read-out: GI50 (inhibited growth by 50%)", "result": 1.72, "unit": "µM"},
      {"measurement": "LC50", "setting": "MDA-MB-435 cells; Homo sapiens, read-out: LC50 (lethal concentration to kill 50% of the cells)", "result": "~6", "unit": "µM"},
      {"measurement": "Total growth inhibition (TGI)", "setting": "MDA-MB-435 cells", "result": 3.23, "unit": "µM"},
      {"measurement": "GI50", "setting": "[1]; Homo sapiens", "result": "~10", "unit": "µM"},
      {"measurement": "CC50", "setting": "[1]; [4]", "result": "~48", "unit": "µM"},
      {"measurement": "TGI", "setting": "[1]", "result": "about 22 μM"},
      {"measurement": "TGI", "setting": "[2]", "result": "about 10 μM"},
      {"measurement": "GI50", "setting": "[2]; Homo sapiens", "result": 3.1, "unit": "µM"},
      {"measurement": "CC50", "setting": "[2]; [4]", "result": 30, "unit": "µM"},
      {"measurement": "GI50", "setting": "[3]; Homo sapiens", "result": 1.63, "unit": "µM"},
      {"measurement": "CC50", "setting": "[3]; [4]", "result": "~7.7", "unit": "µM"},
      {"measurement": "TGI", "setting": "[3]", "result": "about 3.5 μM"}
    ]}
  ]
}
